pIC50: −log10 of the molar value.
Target: PIK3CA (UniProt P42336)
Test: In Vitro Inhibition of PIK3CA Kinase Activity

Chain of PIK3CA (P42336 whole entry, looked up): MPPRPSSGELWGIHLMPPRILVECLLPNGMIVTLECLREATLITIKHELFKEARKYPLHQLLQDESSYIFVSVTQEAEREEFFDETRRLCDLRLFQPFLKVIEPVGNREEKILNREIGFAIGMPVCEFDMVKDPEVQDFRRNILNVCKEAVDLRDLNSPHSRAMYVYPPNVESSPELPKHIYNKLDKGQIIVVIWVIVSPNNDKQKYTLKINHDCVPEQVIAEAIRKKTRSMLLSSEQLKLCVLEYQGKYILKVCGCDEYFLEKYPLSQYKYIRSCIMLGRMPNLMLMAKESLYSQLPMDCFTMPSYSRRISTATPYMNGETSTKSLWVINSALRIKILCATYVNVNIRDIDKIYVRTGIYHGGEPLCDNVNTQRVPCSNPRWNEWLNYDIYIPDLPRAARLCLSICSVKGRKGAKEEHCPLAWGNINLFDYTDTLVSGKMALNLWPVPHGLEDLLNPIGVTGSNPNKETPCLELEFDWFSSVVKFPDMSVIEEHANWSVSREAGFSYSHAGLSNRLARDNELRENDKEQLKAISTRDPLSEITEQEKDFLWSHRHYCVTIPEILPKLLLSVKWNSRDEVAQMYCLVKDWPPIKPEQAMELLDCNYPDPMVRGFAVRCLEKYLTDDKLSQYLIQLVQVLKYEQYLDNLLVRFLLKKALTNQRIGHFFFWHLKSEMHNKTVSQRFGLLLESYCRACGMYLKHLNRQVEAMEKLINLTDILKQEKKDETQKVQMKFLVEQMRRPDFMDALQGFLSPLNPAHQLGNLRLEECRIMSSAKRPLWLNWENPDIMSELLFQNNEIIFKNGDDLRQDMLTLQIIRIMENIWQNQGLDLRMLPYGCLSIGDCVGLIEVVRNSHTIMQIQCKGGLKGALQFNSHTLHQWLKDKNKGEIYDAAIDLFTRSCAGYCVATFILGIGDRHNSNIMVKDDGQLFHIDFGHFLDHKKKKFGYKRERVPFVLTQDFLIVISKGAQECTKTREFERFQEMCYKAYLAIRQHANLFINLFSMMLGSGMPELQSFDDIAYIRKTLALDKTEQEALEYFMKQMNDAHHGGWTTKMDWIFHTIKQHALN

| pIC50 | SMILES |
| --- | --- |
| 4.82 | COc1ccc(-c2cc(=O)cc(N3CCOCC3)o2)cc1 |
| 4.74 | O=c1cc(N2CCOCC2)oc2c3c(ccc12)CCCC3 |
| 5.60 | CC1CN(c2cc(=O)c3ccc4ccccc4c3o2)CCO1 (stereo not given) |
| 5.22 | O=C1c2ccccc2C(=O)N1CCCOc1ccc2c(=O)cc(N3CCOCC3)oc2c1 |
| 3.12 | O=c1cc(N2CCOCC2)nc2c3ccccc3ccn12 |
| 4.80 | O=c1cc(N2CCOCC2)oc2cc3ccccc3cc12 |
| 5.22 | O=c1cc(N2CCSCC2)oc2c1ccc1ccccc12 |
| 4.96 | O=c1cc(N2CCOCC2)oc2ccc3ccccc3c12 |
| < 4.00 | O=c1cc(N2CCOCC2)oc2cc(OCc3ccc(Cl)cc3)ccc12 |
| 4.02 | O=c1cc(N2CCOCC2)oc2cc(OCc3ccc(F)cc3)ccc12 |
| 4.52 | O=c1cc(-c2ccccc2)oc(N2CCOCC2)c1 |
| 4.89 | O=c1cc(-c2ccc(F)cc2)oc(N2CCOCC2)c1 |
| 4.70 | O=c1cc(N2CCOCC2)oc2c1ccc1ccccc12 |
| 4.43 | CC(C)(C)c1ccc(-c2cc(=O)cc(N3CCOCC3)o2)cc1 |
| 5.00 | O=c1cc(-c2ccc(Cl)cc2)oc(N2CCOCC2)c1 |

— the Kinase Knowledgebase extract (Sharma et al. 2016)
